The source of these data is patent publication US20260069581A1, “METHODS AND COMPOSITIONS FOR CANCER THERAPY” (OHIO STATE INNOVATION FOUNDATION, priority 2020, published 2026).

Experiment [1] has as its system luciferase-tagged MOLM13 cells. As to the kind of experiment: In vivo MOLM13 xenograft study, efficacy. As to conditions: MOLM13-engrafted NCG mice; KPT-9274 100 mg/kg daily, AR-42 20 mg/kg every another day, oral gavage.
Description: NCG mice were engrafted with luciferase-tagged MOLM13 cells and treated with vehicle, 20 mg/kg AR-42, 100 mg/kg KPT-9274 and AR-42/KPT-9274 in combination.
Male NOD-Prkdc^em26cd52Il2rg^em26cd22/NjuCrl (NCG) mice (RRID:IMSR_CRL:572) (aged 6-8 weeks) were obtained from Charles River Laboratory. Mice were group-housed under conditions of constant photoperiod (12-hour light/12-hour dark), temperature, and humidity with adlibitum access to water and irradiated standard pelleted chow. 104 luciferase-tagged MOLM13 cells were injected via tail vein into NCG mice. On day 5 post-engraftment, mice were randomized to receive placebo (vehicle; Karyopharm Therapeutics) once daily, 100 mg/kg of KPT-9274 (Karyopharm Therapeutics) once daily, 20 mg/kg AR-42 every another day and the combination of KPT-9274 and AR-42 via oral gavage. Overall survival was the primary end point for the majority of the mice. A separate cohort of mice per group was used to monitor leukemic progression using IVIS imaging. Mice were monitored by animal technicians who were blinded to the treatment groups and determined when mice met early removal criteria (20% weight loss, lethargy, hunching, and poor body condition). Mice were euthanized by CO2 inhalation.
To determine the clinical relevance of the drug combination, the efficacy of co-treatment of AR-42 and KPT-9274 was tested in the MOLM13 xenograft model. […]
For experiment [2], the system named is DNA repair genes in patient LICs (CD34+ CD38−). As to the kind of experiment: LC-RNA-seq of primary patient LICs. The class given is cell-based, human. As to the method: FIG. 5A-5E show representative data that AR-42 and KPT-9274 synergistically alter DNA repair gene sets of LIC transcriptomes. […] Briefly, primary cells from 5 patients were treated with drug combination or vehicle for 12 hours before LICs (CD34^+ CD38^−) were sorted for LC-RNA-seq. […] Cutoff Log 2FC=1.5; p-value<10e^−2. […] The hierarchical clustering of genes and samples was performed using Euclidean distance matrix and Ward's clustering method.
Limiting cell-RNA-seq (LC-RNA-seq) for primary patient LICs. LC-RNA-seq was performed as previously described to determine transcriptome profiles and differentially expressed genes (DEGs) of patient LICs treated with various inhibitors (21). Briefly, patient cells were cultured in the presence of cytokines and treated with vehicle, single agents or drug combination. 300 viable LICs from treated patient samples were sorted directly into SMART-seq lysis buffer with FACSAria Fusion (BD) based on putative stem cell markers CD34^+ CD38^− (22). […] The Clontech SMARTer v4 kit (Takara Bio USA, Inc., Mountain View, CA) was used for preamplifying samples prior to library construction with the Nextera XT DNA Library Prep Kit (Illumina, Inc., San Diego, CA). Samples were sequenced to a depth of 15-20 million 2×150 bp clusters with the Illumina HiSeq 4000 platform. After quality control with CLEAR selection process and size-normalization, DEGs were called with DESeqs with (FDR) adjusted p-value <0.05. Principle component analysis (PCA) plots were created from count tables which were normalized by size and transformed. For pathway analysis, the list of DEGs, containing gene IDs and corresponding expression values, was uploaded into the IPA software (Qiagen) (Ingenuity Pathway Analysis, RRID:SCR_008653). […]
The synthetic lethality of AR-42 and KPT-9274 is conferred by simultaneous suppression of HR and NHEJ pathways in leukemia initiating cells (LICs). […] Treated LICs were analyzed for transcriptional differences and DNA repair mechanisms were highlighted.

Experiment [3] relates to HR activity in EJDR-reporter-stable U2OS cells. As to the kind of experiment: EJDR reporter assay, HR-GFP. The class given is cell-based. As to conditions: ISceI-induced. As to the method:
(§1) EJDR reporter assay. The EJDR assay was described previously (20). EJDR reporter cells were plated at 5×10^5 cells per well in 10% FBS and RPM11640. After drug treatments, cells were grown in 10% Tet-free FBS (100-800; Gemini) and RPM11640. Incorporated I-Sce1 was induced with Shield1 (632189; Clontech) and triamcinolone (TA) (T6510; Sigma Aldrich) ligands for 24 hours. NHEJ and HR repair activities were assessed 48 hours post induction by quantification of DsRed- and GFP-positive cells on Cytomics FC 500 Flow Cytometer (Beckman Coulter, Brea, CA).
(§2) It was unclear whether the potent ability of HDAC inhibitor to induce apoptosis of AML cells in combination with NAMPT inhibition was due to the loss of HR or NHEJ activity alone or both together. Accordingly, HR and NHEJ activities in AML cells exposed to these treatments were examined using the EJDR reporter system (FIG. 6B). EJDR-reporter-stable U2OS cells were treated with vehicle, single agents, or drug combination before being incubated with ligands, TA and Shield 1. […] The expression of D-NHEJ pathway factors, Ku70 and DNA-PKcs, and ATM pathway mediators, CHEK1 and CHEK2, were abolished by AR-42 and KPT-9274 co-treatment. […] Therefore, suppression of HDAC8 can attenuate HR and D-NHEJ gene expressions, resulting in NAMPT inhibitor sensitivity.
On the technique in general: A reporter such as luciferase makes a cellular process visible.

Experiment [4] has as its system NHEJ activity in EJDR-reporter-stable U2OS cells. The experiment is described as follows: EJDR reporter assay, NHEJ DsRed. It counts as cell-based. As to the method: as §1, §2

With `CC(C)[C@H](C(=O)Nc1ccc(C(=O)NO)cc1)c1ccccc1` [AR-42, (S)—N-Hydroxy-4-(3-methyl-2-phenylbutanamido)benzamide], the median survival time in experiment [1] is recorded as 29 days. Moreover, in experiment [2] (AR-42 alone or in combination with KPT-9274, 12 hours), the “mRNA levels of HR genes (NBN, RBBP8, RAD51, BRCA1), D-NHEJ genes (XRCC4, XRCC5) and ATM pathway genes (CHEK1, CHEK2)” value is recorded as “downregulated”. The “HR activity (HR-GFP reporter)” value in experiment [3] is recorded as “nearly completely abolished”. The “NHEJ activity (percentage of DsRed+ cells)” value in experiment [4] is recorded as “NHEJ deficiency”.
Compound `Nc1ccc(/C=C/C(=O)NCc2cc3cc(-c4ccc(C(=O)N5CCC(F)(F)CC5)cc4)cc(-c4ccc(F)cc4)c3o2)cn1` [KPT-9274, (E)-3-(6-aminopyridin-3-yl)-N-[[5-[4-(4,4-difluoropiperidine-1-carbonyl)phenyl]-7-(4-fluorophenyl)-1-benzofuran-2-yl]methyl]prop-2-enamide] yielded a median survival time in experiment [1] of 27 days. For the same compound, in experiment [2] (KPT-9274 alone, in some patients), the “BRCA1 and XRCC4 expression” value was “upregulated”. Moreover, the “yields of D-NHEJ transcripts (XRCC6, PRKDC) and B-NHEJ gene PARP1” value in experiment [2] (in all patients) was “decreased”. Moreover, the “HR activity (HR-GFP reporter)” value in experiment [3] is listed as “did not impact HR activity”. The “NHEJ activity (percentage of DsRed+ cells)” value in experiment [4] was “more robust reduction”.
